Measured values reported in patent US20250312497A1, “METHOD OF TREATING PROSTATE CANCER” (Novartis AG, priority 2022, published 2025).
Where “and” joins values, the source holds several entries; their conditions need not be identical. Equal values may be shown once. Read-outs that look alike come from different tables or passages of the source.

Assays:
[1] = system: PSMA-positive metastatic castration-resistant prostate cancer (mCRPC); assay: PSMAfore phase III: radiographic progression-free survival (rPFS) by blinded independent central review per PCWG3; assay type: in vivo, human
Method: Radiographic progression-free survival (rPFS) based on independent central review as per PCWG3 criteria is the primary endpoint and overall survival (OS) is the key secondary endpoint for the study. The statistical design of the study is such that, to be declared positive, the study would be required to reach statistical significance on the primary analysis of rPFS.
The primary analysis of rPFS and the first interim analysis of OS were performed using all patients randomized on or before the data cutoff date of 2 Oct. 2022 using a one-sided alpha level of 2.5%. One randomized and treated patient was excluded from Full Analysis Set due to informed consent not obtained per due process (INCL1A PD).

[2] = system: PSMA-positive metastatic castration-resistant prostate cancer (mCRPC); assay: PSMAfore phase III: overall survival (OS), interim analysis; assay type: in vivo, human; details: first interim analysis DCO 2 Oct 2022
Method: After radiographic progression, follow up for survival will continue.
OS is hierarchically tested based on a three-look group sequential design using a Lan DeMets (O'Brien Flemming) alpha spending function. The final OS analysis was not planned to be performed at the time of the interim rPFS analysis, which is reported in this FIR.
Following the hierarchical testing strategy defined in the study protocol, OS was tested once rPFS was statistically significant. The one-sided alpha level (<0.000000001012) required for a significant OS difference in this first interim analysis was calculated from the pre-specified alpha spending function and the number of events observed at the time of rPFS analysis.
Results in terms of the OS at the time of the first interim OS analysis are based on 13.5% (40/297 deaths).
The second interim analysis for OS is planned after additional follow up when approximately 75% (223/297) of the targeted number of deaths/events have occurred. If OS is not statistically significant at the second interim analysis, a final analysis is planned when approximately 297 deaths have been recorded.

[3] = system: PSMA-positive metastatic castration-resistant prostate cancer (mCRPC); assay: PSMAfore phase III: best overall radiological response (soft tissue and bone) by BICR; assay type: in vivo, human; details: results update
Method: Best overall radiological response accounting for soft tissue and bone disease based on BICR (Recist analysis set—participants with measurable disease at baseline)
Responses are based on soft tissue assessment and bone lesion progression. Best overall responses of CR and PR were confirmed by repeat assessments that were performed not less than 4 weeks after the criteria for response were first met.
CR may include participants with residual but non-progressive bone disease.

[4] = system: castrate-resistant metastatic prostate cancer; details: cited from earlier work
[5] = system: PSMA-positive metastatic castration-resistant prostate cancer; details: cited from earlier work
[6] = DCO 2 Oct 2022, full analysis set
[7] = primary analysis DCO 2 Oct 2022, most recent central vendor data (results update)
[8] = Recist analysis set, measurable disease at baseline, BICR

O=C([O-])CN1CCN(CC(=O)[O-])CCN(CC(=O)NCC2CCC(C(=O)N[C@@H](Cc3ccc4ccccc4c3)C(=O)NCCCC[C@H](NC(=O)N[C@@H](CCC(=O)O)C(=O)O)C(=O)O)CC2)CCN(CC(=O)[O-])CC1.[177Lu+3] (stereo partly shown) [[177Lu]Lu-PSMA-617, lutetium (177Lu) vipivotide tetraxetan]
rPFS events: Death without radiographic progression [1, 6]: 6 (2.6) n(%)
rPFS events: Radiographic progression [1, 6]: 55 (23.6) n(%)
rPFS: Number of events [1, 6]: 61 (26.2%) n(%) and 61 (26.2) n(%)
risk reduction (rPFS) compared to ARDT arm [1, 6]: 58%
rPFS 75th percentile (95% CI) ([1]; DCO 2 Oct 2022, full analysis set, Kaplan-Meier): NE [11.96, NE]
estimated rPFS probability (95% CI) at 6 months [1, 7]: 69.0%
rPFS: Number of events [1, 7]: 60 (25.8%) n (%)
median OS (95% CI) ([2]; Kaplan-Meier): NE [12.16, NE]
OS: Number of events ([2]; full analysis set): 20 (8.6) n(%)
Best overall response: Complete response (CR) [3, 8]: 15 (21.1) n (%)
Best overall response: Partial response (PR) [3, 8]: 20 (28.2) n (%)
Best overall response: Progressive disease (PD) [3, 8]: 14 (19.7) n (%)
Best overall response: Unknown (UNK) [3, 8]: 2 (2.8) n (%)
Disease Control Rate (DCR: CR + PR + SD) [3, 8]: 55 (77.5) n (%)
Overall Response Rate (ORR: CR + PR) [3, 8]: 35 (49.3) n (%)
rDCR compared to ARDT [3]: a higher rDCR compared to ARDT
rORR compared to ARDT [3]: at least three times higher rORR compared to ARDT
participants with PSA decline >50% ([4]; 10 participants, 5.6 GBq/150 mCi): 50%
participants with PSA decline >50% ([4]; after 2 cycles of 6 GBq/160 mCi): 60%
complete response ([5]; RECIST 1.1 measurable target lesions, 17 of 184 patients): 9.2%
partial response ([5]; RECIST 1.1 measurable target lesions, 77 patients): 41.8%
median imaging-based progression-free survival ([5]; plus standard care, vs 3.4 months standard care): 8.7 months
median overall survival ([5]; plus standard care, vs 11.3 months standard care): 15.3 months
hazard ratio for death ([5]; vs standard care, 95% CI 0.52 to 0.74): 0.62
hazard ratio for progression or death ([5]; vs standard care, 99.2% CI 0.29 to 0.57): 0.40
